Data published in the supplement of paper PMC10307832.

Assays:
Experiment in all cases: relative viability (nuclei count vs DMSO), 5 days (fraction); higher = more cells survive
NCI-H3122 = test system: NCI-H3122
Procedure, shortened: (§1)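 Dosing by pin tool came one day after lung cancer cell lines were seeded in 1536-well plates, using either one drug or a fixed anchor-drug dose plus five library-drug doses (not always all listed) in √10 steps. After 5 days, nuclei were counted on 4× images. Relative viability is treated-well nuclei count divided by vehicle-well nuclei count, and values are medians of duplicate plates.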

H3255 = test system: H3255
Procedure, shortened: as §1

EPLC-272H = test system: EPLC-272H
Procedure, shortened: as §1

NCI-H441 = test system: NCI-H441
Procedure, shortened: as §1

NCI-H322M = test system: NCI-H322M
Procedure, shortened: as §1

NCI-H2170 = test system: NCI-H2170
Procedure, shortened: as §1

201T = test system: 201T
Procedure, shortened: as §1

UMC-11 = test system: UMC-11
Procedure, shortened: as §1

NCI-H647 = test system: NCI-H647
Procedure, shortened: as §1

NCI-H1650 = test system: NCI-H1650
Procedure, shortened: as §1

NCI-H1734 = test system: NCI-H1734
Procedure, shortened: as §1

PC-14 = test system: PC-14
Procedure, shortened: as §1

NCI-H2023 = test system: NCI-H2023
Procedure, shortened: as §1

NCI-H1793 = test system: NCI-H1793
Procedure, shortened: as §1

NCI-H1563 = test system: NCI-H1563
Procedure, shortened: as §1

COR-L23 = test system: COR-L23
Procedure, shortened: as §1

HCC-15 = test system: HCC-15
Procedure, shortened: as §1

SW 900 = test system: SW 900
Procedure, shortened: as §1

NCI-H520 = test system: NCI-H520
Procedure, shortened: as §1

LOU-NH91 = test system: LOU-NH91
Procedure, shortened: as §1

NCI-H2405 = test system: NCI-H2405
Procedure, shortened: as §1

NCI-H2347 = test system: NCI-H2347
Procedure, shortened: as §1

With Cc1sc2c(c1C)C(c1ccc(Cl)cc1)=N[C@@H](CC(=O)OC(C)(C)C)c1nnc(C)n1-2 [JQ1] + Nc1nc2[nH]cc(CCc3ccc(C(=O)N[C@@H](CCC(=O)O)C(=O)O)cc3)c2c(=O)[nH]1 [Pemetrexed] (partner 0.2 µM) the relative viability (NCI-H3122; first compound 0.04 µM) was 0.193, the relative viability (NCI-H3122; first compound 0.1265 µM) was 0.16 and the relative viability (NCI-H3122; first compound 0.4 µM) was 0.186. It also gave a relative viability (NCI-H3122; first compound 1.265 µM) of 0.118, a relative viability (NCI-H3122; first compound 4 µM) of 0.12 and a relative viability (H3255; first compound 0.04 µM) of 0.569. For the same compound, the relative viability (H3255; first compound 0.1265 µM) was 0.515, the relative viability (H3255; first compound 0.4 µM) was 0.453 and the relative viability (H3255; first compound 1.265 µM) was 0.364. It also gave a relative viability (H3255; first compound 4 µM) of 0.3, a relative viability (EPLC-272H; first compound 0.04 µM) of 0.309 and a relative viability (EPLC-272H; first compound 0.1265 µM) of 0.336. It also gave a relative viability (EPLC-272H; first compound 0.4 µM) of 0.29, a relative viability (EPLC-272H; first compound 1.265 µM) of 0.298 and a relative viability (EPLC-272H; first compound 4 µM) of 0.317. The relative viability (NCI-H441; first compound 0.04 µM) was 0.271, the relative viability (NCI-H441; first compound 0.1265 µM) was 0.263 and the relative viability (NCI-H441; first compound 0.4 µM) was 0.273. It also gave a relative viability (NCI-H441; first compound 1.265 µM) of 0.213, a relative viability (NCI-H441; first compound 4 µM) of 0.186 and a relative viability (NCI-H322M; first compound 0.04 µM) of 0.625. For the same compound, the relative viability (NCI-H322M; first compound 0.1265 µM) was 0.648, the relative viability (NCI-H322M; first compound 0.4 µM) was 0.515 and the relative viability (NCI-H322M; first compound 1.265 µM) was 0.495. It also gave a relative viability (NCI-H322M; first compound 4 µM) of 0.381, a relative viability (NCI-H2170; first compound 0.04 µM) of 0.257 and a relative viability (NCI-H2170; first compound 0.1265 µM) of 0.263. For the same compound, the relative viability (NCI-H2170; first compound 0.4 µM) was 0.248, the relative viability (NCI-H2170; first compound 1.265 µM) was 0.238 and the relative viability (NCI-H2170; first compound 4 µM) was 0.194. It also gave a relative viability (201T; first compound 0.04 µM) of 0.325, a relative viability (201T; first compound 0.4 µM) of 0.293 and a relative viability (201T; first compound 1.265 µM) of 0.274. The relative viability (201T; first compound 4 µM) was 0.23, the relative viability (UMC-11; first compound 0.04 µM) was 0.73 and the relative viability (UMC-11; first compound 0.1265 µM) was 0.584. The relative viability (UMC-11; first compound 0.4 µM) was 0.352, the relative viability (UMC-11; first compound 1.265 µM) was 0.254 and the relative viability (UMC-11; first compound 4 µM) was 0.193. For the same compound, the relative viability (NCI-H647; first compound 0.04 µM) was 0.156, the relative viability (NCI-H647; first compound 0.1265 µM) was 0.125 and the relative viability (NCI-H647; first compound 0.4 µM) was 0.105. It also gave a relative viability (NCI-H647; first compound 1.265 µM) of 0.0945, a relative viability (NCI-H647; first compound 4 µM) of 0.0741 and a relative viability (NCI-H1650; first compound 0.04 µM) of 0.365. It also gave a relative viability (NCI-H1650; first compound 0.1265 µM) of 0.293, a relative viability (NCI-H1650; first compound 0.4 µM) of 0.335 and a relative viability (NCI-H1650; first compound 1.265 µM) of 0.202. The relative viability (NCI-H1650; first compound 4 µM) was 0.183, the relative viability (NCI-H1734; first compound 0.04 µM) was 0.358 and the relative viability (NCI-H1734; first compound 0.1265 µM) was 0.347. The relative viability (NCI-H1734; first compound 0.4 µM) was 0.327, the relative viability (NCI-H1734; first compound 1.265 µM) was 0.342 and the relative viability (NCI-H1734; first compound 4 µM) was 0.283. The relative viability (PC-14; first compound 0.04 µM) was 0.12, the relative viability (PC-14; first compound 0.1265 µM) was 0.148 and the relative viability (PC-14; first compound 0.4 µM) was 0.105. For the same compound, the relative viability (PC-14; first compound 1.265 µM) was 0.136, the relative viability (PC-14; first compound 4 µM) was 0.133 and the relative viability (NCI-H2023; first compound 0.04 µM) was 0.231. For the same compound, the relative viability (NCI-H2023; first compound 0.1265 µM) was 0.195, the relative viability (NCI-H2023; first compound 0.4 µM) was 0.139 and the relative viability (NCI-H2023; first compound 1.265 µM) was 0.101. The relative viability (NCI-H2023; first compound 4 µM) was 0.109, the relative viability (NCI-H1793; first compound 0.04 µM) was 0.748 and the relative viability (NCI-H1793; first compound 0.1265 µM) was 0.81. The relative viability (NCI-H1793; first compound 0.4 µM) was 0.648, the relative viability (NCI-H1793; first compound 1.265 µM) was 0.661 and the relative viability (NCI-H1793; first compound 4 µM) was 0.78. For the same compound, the relative viability (NCI-H1563; first compound 0.04 µM) was 0.698, the relative viability (NCI-H1563; first compound 0.1265 µM) was 0.715 and the relative viability (NCI-H1563; first compound 0.4 µM) was 0.673. The relative viability (NCI-H1563; first compound 1.265 µM) was 0.47, the relative viability (NCI-H1563; first compound 4 µM) was 0.491 and the relative viability (COR-L23; first compound 0.04 µM) was 0.21. It also gave a relative viability (COR-L23; first compound 0.1265 µM) of 0.214, a relative viability (COR-L23; first compound 0.4 µM) of 0.196 and a relative viability (COR-L23; first compound 1.265 µM) of 0.159. For the same compound, the relative viability (COR-L23; first compound 4 µM) was 0.147, the relative viability (HCC-15; first compound 0.04 µM) was 0.238 and the relative viability (HCC-15; first compound 0.1265 µM) was 0.224. For the same compound, the relative viability (HCC-15; first compound 0.4 µM) was 0.19, the relative viability (HCC-15; first compound 1.265 µM) was 0.182 and the relative viability (HCC-15; first compound 4 µM) was 0.199. It also gave a relative viability (SW 900; first compound 0.04 µM) of 0.472, a relative viability (SW 900; first compound 0.1265 µM) of 0.477 and a relative viability (SW 900; first compound 0.4 µM) of 0.349. The relative viability (SW 900; first compound 1.265 µM) was 0.19, the relative viability (SW 900; first compound 4 µM) was 0.195 and the relative viability (NCI-H520; first compound 0.04 µM) was 0.565. It also gave a relative viability (NCI-H520; first compound 0.1265 µM) of 0.536, a relative viability (NCI-H520; first compound 0.4 µM) of 0.491 and a relative viability (NCI-H520; first compound 1.265 µM) of 0.307. For the same compound, the relative viability (NCI-H520; first compound 4 µM) was 0.195, the relative viability (LOU-NH91; first compound 0.04 µM) was 0.365 and the relative viability (LOU-NH91; first compound 0.1265 µM) was 0.387. For the same compound, the relative viability (LOU-NH91; first compound 0.4 µM) was 0.354, the relative viability (LOU-NH91; first compound 1.265 µM) was 0.334 and the relative viability (LOU-NH91; first compound 4 µM) was 0.362. The relative viability (NCI-H2405; first compound 0.04 µM) was 1.08, the relative viability (NCI-H2405; first compound 0.4 µM) was 0.899 and the relative viability (NCI-H2405; first compound 1.265 µM) was 0.72. For the same compound, the relative viability (NCI-H2405; first compound 4 µM) was 0.321, the relative viability (NCI-H2347; first compound 0.04 µM) was 0.468 and the relative viability (NCI-H2347; first compound 0.1265 µM) was 0.423. It also gave a relative viability (NCI-H2347; first compound 0.4 µM) of 0.403, a relative viability (NCI-H2347; first compound 1.265 µM) of 0.405 and a relative viability (NCI-H2347; first compound 4 µM) of 0.357.
